pIC50: −log10 of the molar value. Calls of active or inactive are those of the source. The rule behind the calls is not given here.
Key:
[1] = Potency index, ratio of IC50 for human HepG2/ADM cells to IC50 for human HepG2 cells; type: functional
[2] = Cytotoxicity against human HepG2/ADM cells assessed as cell growth inhibition incubated for 72 hrs by MTT assay; type: functional, cell-based
HepG2 = test: Cytotoxicity against human HepG2 cells assessed as cell growth inhibition incubated for 72 hrs by MTT assay; type: functional, cell-based; details: HepG2, 72 h
[3] = Induction of apoptosis in human HepG2/ADM cells assessed as apoptotic cells at 20 uM incubated for 72 hrs in presence of ADM by Annexin V-FITC/SYTOX Red staining based flow cytometric analysis (reference value: 2.60%); type: functional
L02 = test: Cytotoxicity against human L02 cells assessed as cell growth inhibition incubated for 72 hrs by MTT assay; type: cell-based; details: L02, 72 h
[4] = Induction of apoptosis in human HepG2/ADM cells assessed as early apoptotic cells at 20 uM incubated for 72 hrs by Annexin V-FITC/SYTOX Red staining based flow cytometric analysis (reference value: 5.52%); type: functional
NIH3T3 = test: Cytotoxicity against mouse NIH/3T3 cells assessed as cell growth inhibition incubated for 72 hrs by MTT assay; type: cell-based; details: NIH3T3, 72 h
[5] = Induction of apoptosis in human HepG2/ADM cells assessed as late apoptotic cells at 20 uM incubated for 72 hrs by Annexin V-FITC/SYTOX Red staining based flow cytometric analysis (Rvb =0.04%); type: functional
[6] = Induction of apoptosis in human HepG2/ADM cells assessed as viable cell at 20 uM incubated for 72 hrs by Annexin V-FITC/SYTOX Red staining based flow cytometric analysis (reference value: 94.4%); type: functional
[7] = Induction of apoptosis in human HepG2/ADM cells assessed as necrotic cells at 20 uM incubated for 72 hrs by Annexin V-FITC/SYTOX Red staining based flow cytometric analysis (Rvb =0%); type: functional
[8] = Induction of apoptosis in human HepG2/ADM cells assessed as early apoptotic cells at 20 uM incubated for 72 hrs in presence of ADM by Annexin V-FITC/SYTOX Red staining based flow cytometric analysis (reference value: 8.58%); type: functional
[9] = Induction of apoptosis in human HepG2/ADM cells assessed as necrotic cells at 20 uM incubated for 72 hrs in presence of ADM by Annexin V-FITC/SYTOX Red staining based flow cytometric analysis (Rvb =0.1%); type: functional
[10] = Induction of apoptosis in human HepG2/ADM cells assessed as viable cells at 20 uM incubated for 72 hrs in presence of ADM by Annexin V-FITC/SYTOX Red staining based flow cytometric analysis (reference value: 88.7%); type: functional; details: read-out: Activity
[11] = target: T1, ATP-dependent translocase ABCB1 (Homo sapiens, UniProt P08183); test: Inhibition of Pgp in human HepG2/ADM cells at 20 uM incubated for 2 hrs by mitotracker 633 staining based inverted confocal microscopy; type: cell-based
[12] = Drug localization in cellular membrane of human HepG2/ADM cells at 20 uM incubated for 2 hrs by mitotracker 633 staining based inverted confocal microscope; type: ADME, cell membranes
HepG2/Adm [13] = test: Downregulation of Pgp in human HepG2/ADM cells at 5 to 20 uM incubated for 48 hrs by Western blot analysis; type: functional, cell-based
[14] = Drug accumulation in human L02 cells at 10 uM incubated for 3 hrs by flow cytometric analysis; type: ADME, cell-based; details: l02, 3 h
HepG2/Adm [15] = test: Downregulation of MDR1 mRNA in human HepG2/ADM cells at 5 to 20 uM incubated for 24 hrs by real time qPCR analysis; type: functional, cell-based
HepG2/Adm [16] = test: Downregulation of Pgp in human HepG2/ADM cells at 20 uM incubated for 48 hrs by flow cytometric analysis; type: functional, cell-based
[17] = Drug localization in cellular membrane of human HepG2 cells at 20 uM incubated for 2 hrs by mitotracker 633 staining based inverted confocal microscope; type: ADME, cell membranes; details: hepg2, 2 h
[18] = Drug localization in mitochondria of human HepG2 cells at 20 uM incubated for 2 hrs by mitotracker 633 staining based inverted confocal microscope; type: ADME; details: hepg2, 2 h
[19] = Drug accumulation in human HepG2 cells at 10 uM incubated for 3 hrs by flow cytometric analysis; type: ADME, cell-based; details: hepg2, 3 h
[20] = Drug localization in mitochondria of human HepG2/ADM cells at 20 uM incubated for 2 hrs by mitotracker 633 staining based inverted confocal microscope; type: ADME
[21] = target: T1, ATP-dependent translocase ABCB1; test: Inhibition of Pgp in human HepG2/ADM cells assessed as increase in intracellular ADM level at 20 uM incubated for 2 hrs by mitotracker 633 staining based inverted confocal microscopic analysis; type: cell-based
[22] = target: T1, ATP-dependent translocase ABCB1; test: Inhibition of Pgp in human HepG2/ADM cells assessed as increase in intracellular ADM level at 20 uM incubated for 12 hrs by flow cytometric analysis; type: cell-based

T1 sequence (P08183 whole entry): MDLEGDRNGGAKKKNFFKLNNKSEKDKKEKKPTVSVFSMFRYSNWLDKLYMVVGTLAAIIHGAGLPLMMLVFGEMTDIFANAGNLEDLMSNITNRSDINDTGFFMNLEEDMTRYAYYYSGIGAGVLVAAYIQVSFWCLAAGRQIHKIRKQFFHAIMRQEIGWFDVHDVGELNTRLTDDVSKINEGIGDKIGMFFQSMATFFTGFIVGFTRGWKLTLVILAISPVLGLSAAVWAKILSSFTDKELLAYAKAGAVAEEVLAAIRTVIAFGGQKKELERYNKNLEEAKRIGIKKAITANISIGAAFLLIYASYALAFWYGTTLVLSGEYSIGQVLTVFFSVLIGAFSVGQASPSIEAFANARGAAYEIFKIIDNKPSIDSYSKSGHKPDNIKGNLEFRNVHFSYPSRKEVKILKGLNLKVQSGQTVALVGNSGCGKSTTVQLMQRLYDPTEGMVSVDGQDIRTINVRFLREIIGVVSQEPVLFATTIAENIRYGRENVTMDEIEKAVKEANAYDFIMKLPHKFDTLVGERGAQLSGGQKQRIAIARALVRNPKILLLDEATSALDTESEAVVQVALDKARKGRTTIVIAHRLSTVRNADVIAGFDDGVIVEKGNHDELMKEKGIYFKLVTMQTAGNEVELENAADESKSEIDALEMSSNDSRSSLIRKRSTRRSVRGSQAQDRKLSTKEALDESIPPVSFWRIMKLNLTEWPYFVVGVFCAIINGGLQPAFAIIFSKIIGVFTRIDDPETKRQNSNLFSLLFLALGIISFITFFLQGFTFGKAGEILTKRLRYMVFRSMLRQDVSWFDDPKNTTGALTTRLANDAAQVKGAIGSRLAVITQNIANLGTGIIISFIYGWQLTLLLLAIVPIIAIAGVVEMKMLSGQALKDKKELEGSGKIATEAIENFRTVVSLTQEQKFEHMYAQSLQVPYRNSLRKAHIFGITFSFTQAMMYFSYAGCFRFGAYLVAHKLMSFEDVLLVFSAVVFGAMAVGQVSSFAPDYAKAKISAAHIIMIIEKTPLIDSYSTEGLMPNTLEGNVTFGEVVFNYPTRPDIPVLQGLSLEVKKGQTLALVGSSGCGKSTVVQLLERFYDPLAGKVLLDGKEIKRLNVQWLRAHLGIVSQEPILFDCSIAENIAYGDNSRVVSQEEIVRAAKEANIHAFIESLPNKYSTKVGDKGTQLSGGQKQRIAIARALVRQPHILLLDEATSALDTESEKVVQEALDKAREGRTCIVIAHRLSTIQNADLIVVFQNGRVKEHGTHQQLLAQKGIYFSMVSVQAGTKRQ

Row | SMILES | pIC50 [2] | pIC50 (HepG2) | Activity [3] [%] | pIC50 (L02) | Activity [4] [%] | pIC50 (NIH3T3) | Activity [5] [%] | Activity [6] [%] | Activity [7] [%] | Activity [8] [%] | Activity [9] [%] | viability at 20 µM [10] [%] | also measured
1 | COc1cccc2c1C(=O)c1c(O)c3c(c(O)c1C2=O)C[C@@](O)(C(=O)CO)C[C@@H]3O[C@H]1C[C@H](N)[C@H](O)[C@H](C)O1.Cl [DOXORUBICIN HYDROCHLORIDE] | 3.84 | 6.17 |  |  |  |  |  |  |  |  |  |  | Ratio IC50 [1]: 215.4
2 | Cl.NCCC[n+]1ccc(/C=C/c2c[nH]c3ccc(F)cc23)cc1.[Br-] | 3.99 | 3.99 | 17 | < 3.22 | 8.72 | < 3.22 | 2.66 | 88.4 | 0.25 | 26.2 | 1.21 | 55.6 | 
3 | O=C(CCCc1ccc(N(CCCl)CCCl)cc1)NCCC[n+]1ccc(/C=C/c2c[nH]c3ccc(F)cc23)cc1.[Br-] | 4.22 | 4.22 | 2.38 | < 3.22 | 14.2 | < 3.22 | 0.09 | 85.7 | 0.01 | 64 | 0 | 33.5 | inhibition (INH) [11]: Active; Drug uptake [12]: Active; Activity (HepG2/Adm [13]): Active; Drug uptake [14]: Not Active; Activity (HepG2/Adm [15]): Active; Activity (HepG2/Adm [16]): Active; Drug uptake [17]: Active; Drug uptake [18]: Active; Drug uptake [19]: Active; Drug uptake [20]: Active; inhibition (INH) [21]: Active; inhibition (INH) [22]: Active
4 | O=C(O)CCCc1ccc(N(CCCl)CCCl)cc1 [CHLORAMBUCIL] | 3.53 | 3.72 | 0.05 | < 3.22 | 9.08 | < 3.22 | 0.01 | 90.9 | 0.01 | 12.4 | 0 | 87.5 | 

— ChEMBL document CHEMBL4433196, “A novel delocalized lipophilic cation-chlorambucil conjugate inhibits P-glycoprotein in HepG2/ADM cells” (Bioorg Med Chem, 2017)
